Source: patent US20030175678A1, “Methods for identifying genes regulating desired cell phenotypes” (priority 2001, published 2003)

How the values were obtained:
Type in all cases: cell-based
[1] = system: C. fascicularis suspension culture; experiment: Differential induction of EGCG in Crassula fascicularis suspension culture (HPLC); details: B49 medium, treated on day 7 following subculture
Protocol: Differential induction of catechins in the C. fascicularis suspension culture was performed in 500 mL conical flasks containing 190 mL of either growth medium B105 (modified Gamborg's B5 medium containing 2,4-D (1 mg/L), kinetin (0.1 mg/L), coconut water (100 mL/L), glutamine (10 mM), and 3% sucrose) or a secondary metabolite production medium B49 (Gamborg's B5, 5% sucrose, no hormones), inoculated with 70 mL of 14 day old suspension culture. Cultures were grown for 14 days before harvest and processing. Further cultures grown on production medium B49 were treated using one of each of the following protocols:
(4) A 40 mL aliquot of a day 0 suspension growing on B105 medium was transferred to a 100 mL flask. On day 3, a sterile solution of 5-azacytidine (5-AC) in water was added for a final concentration of 3×10^−5 M, and the resultant mixture was incubated for 11 days. At this point the 40 mL 5-AC-treated culture was subcultured twice before inoculating 190 mL B49 production medium in a 500 mL flask with 70 mL of day 14 suspension. The culture was then treated further according to protocol (2). […]
Lyophilized biomass from 100 mL plant cell culture was extracted three times with 10 mL of boiling aqueous 0.2 M NaH2PO4 solution (total 30 mL). The combined, cooled, extracts were extracted with EtOAc (2×30 mL). The combined EtOAc extracts were then dried under a stream of nitrogen. The samples were dissolved in 50% aqueous acetonitrile at a concentration of 1.0 mg/mL; a 0.1 mL aliquot was transferred into a 0.25 mL glass insert to a 2 mL HPLC vial. The extraction procedure is scalable according to the initial volume of the plant-cell culture used to generate the biomass.
HPLC analyses of compounds in plant cell culture extracts were performed in two systems. System 1 (S1) utilized a Rainin Dynamax SD-200 pumping system, a Varian Dynamax PDA-2 diode array detector, with a Waters XTerra RP 18 (5 μm, 3.0×150 mm) column. The mobile phase was composed from 0.1% acetic acid in H2O (solvent A) and 0.1% acetic acid in acetonitrile (solvent B), at a flow rate of 0.75 mL/min: after maintaining initial conditions (A:B, 95:5) for one minute post-injection, gradient elution was accomplished in a linear fashion over 30 min (to A:B, 40:60). A total of 10 μL of each sample was injected onto the column and eluates were analyzed at a wavelength of 275 nm. System 2 (S2) utilized API-electrospray-LC-MS: a Hewlett Packard series HP1100 with a Waters Xterra RP18 (3.5 μm, 2.1×100 mm) column was used as the inlet for a Micromass Platform-LC, in the positive-ion mode. […] Compounds of interest were detected at 254 nm and as single-charged species via selected-ion monitoring in the mass spectrometer. […]

[2] = system: C. barkleyi suspension culture; experiment: Differential induction of catechin accumulation in Crassula barkleyi suspension culture; details: B49 medium, treated seven days after inoculation, sampled for 17 days
Protocol: Differential induction of catechin derivatives in the C. barkleyi suspension culture was performed in 250 mL conical flasks containing 100 mL of a secondary metabolite production medium B49 (Gamborg's B5, with 5% sucrose, and no hormones), inoculated with 16 mL of 14 day old suspension culture. The cultures were incubated under low light conditions (approximately 30 lux) at 25° C. for seven days after inoculation. Cultures were then treated using one of each of the following protocols (untreated cultures were also maintained as controls):
(2) Autoclaved aqueous 2,4-D (1 mg/L final concentration) was added;
(4) Filter-sterilized aqueous DL-phenylalanine (200 mg/L) was added;
(6) Filter-sterilized aqueous zeatin (10 μM) was added;
(7) Filter-sterilized aqueous 1-aminocyclopropane-1-carboxylic acid (10 mg/L final concentration) was added;
(8) Filter-sterilized 24-epibrassinolide (1 mg/L final concentration) was added;
(9) Incubation at a temperature of 16° C.; or (10) High light regime (approximately 160 lux).
(§1) Ten milliliter culture samples were taken at regular intervals for 17 days following the day of subculture to B49 medium. All culture samples were centrifuged for five minutes at 4000 rpm, and the cell residue was freeze-dried. Extraction, sample preparation, and HPLC analysis were performed as described in Example 1.

[3] = system: C. dejecta suspension culture; experiment: Differential induction of catechin accumulation in Crassula dejecta suspension culture; details: cultures grown on B105, added at day 7
Protocol: Differential induction of catechin derivatives in the C. dejecta suspension culture was performed in 250 mL conical flasks containing 100 mL of B105 growth medium or 100 mL of a secondary metabolite production medium B49 (Gamborg's B5, with 5% sucrose, and no hormones), inoculated with 40 mL of 21 day old suspension culture. The cultures were incubated under low light conditions (approximately 30 lux) at 25° C. Cultures were treated using one of each of the following protocols:
(1) B105 growth medium (no additions) used as is;
(3) Filter-sterilized aqueous zeatin (10 μM) was added at day 7 to a culture grown on B105 medium;
(4) B49 production medium (no additions) used as is;
as §1, with “(6) Filter-sterilized clofibrate (0.5 mM final concentration) was added at day 7 to a culture grown on B49 medium. Ten” for “Ten”, “milliliters of” for “milliliter”, “to B105 or” for “to”

SMILES	EGCG (mg/gdwt) two days after treatment [1]	catechin biosynthesis and EGCG accumulation [2]	induction of catechin, gallocatechin, and EGCG [3]
O=C(O)c1cc(O)c(O)c(O)c1 [gallic acid]	82 mg/gdwt	–	–
O=C(O)COc1ccc(Cl)cc1Cl [2,4-D, 2,4-dichlorophenoxyacetic acid]	–	suppressed catechin biosynthesis	–
C/C(=C\CNc1ncnc2[nH]cnc12)CO [zeatin]	–	induced catechin biosynthesis and EGCG accumulation	induced catechin, gallocatechin, and EGCG
O.O.O.O.O.O.O.O=S(=O)([O-])[O-].[Fe+2] [FeSO4.7H2O]	90 mg/gdwt	–	–
CC(C)[C@@H](C)[C@@H](O)[C@H](O)[C@@H](C)[C@H]1CC[C@H]2[C@@H]3COC(=O)[C@H]4C[C@H](O)[C@H](O)C[C@]4(C)[C@H]3CC[C@]12C [24-epibrassinolide]	–	induced catechin biosynthesis and EGCG accumulation	–
CCOC(=O)C(C)(C)Oc1ccc(Cl)cc1 [Clofibrate]	89 mg/gdwt	–	–
